Assay results as given in patent US20090253709A1 (NATIONAL DEFENSE MEDICAL CENTER, priority 2008, published 2009).

Columns and labels:
BJ1 = experiment: MTT assay in BJ1 cells; assay type: cell-based
Experimental: (§1) A total of 2×10^3 […] cells were seeded in the 96-well cell culture plate, and incubated with DMEM (GIBCO®)/glucose mixture and Medium 199 (GIBCO®)/10% FBS/1 mM sodium pyruvate (GIBCO®)/4 mM L-glutamine (GIBCO®) mixture at a ratio of 4:1 at 37° C. for 24 hours. […] After 48 hours of drug treatment, the cultured medium were collected for performing the analysis of SEAP activity. The cells were washed with 1×PBS once immediately, and the MTT assay was performed to compare the compounds with the relative toxicity or the influence to the proliferation and activity. Mitochondria is the place for cellular respiration, and there are many reductive reactions catalyzed by dehydrogenases. MTT is a water-soluble yellow compound, and the […] will be formed after reduction. This crystal can be dissolved in the organic solvent, and has high absorbance at the wavelength of 570 nm. The higher cellular activity or more cell numbers, the more generated crystal violets. Therefore, the cellular activity and cell number can be obtained by the MTT assay. MTT solution was prepared by dissolving MTT powder in PBS solution to achieve 5 mg/ml, filtrated and stored at 4° C. Lysis buffer contained 20% (w/v) of SDS in 50% of N,N-dimethylformamide (DMF, Riedel-deHaën). After the cells were incubated in the 96-well culture plate, the original medium was discarded, 100 μl of the fresh serum-free medium per well and 25 μl of MTT solution per well were added in respectively, and the cells were further incubated in the CO2 incubator at 37° C. for 4 hours. Then, 100 μl of lysis buffer per well was added in and incubated overnight in the CO2 incubator at 37° C. The absorbance at 570 nm was determined by the ELISA reader.

H1299 = experiment: MTT assay in H1299 cells; assay type: cell-based
Experimental: as §1, with “H1299 is a non-small cell lung cancer cell line with telomerase activity. The cell extract of H1299 cell lines can be used for selecting the telomerase activity inhibitors in vitro and the telomerase activity-inhibited substances in vivo. H1299 cell line was incubated with RPMI 1640 medium supplemented with 10% of fetal bovine serum (FBS). A total” for “A total”, “ELISA reader. The selection of telomerase inhibitors of the anthraquinone compounds provided in the present invention was performed by the […]-driven SEAP system. SEAP is the communication gene in this drug selection model. The SEAP inhibition was shown as follows. […] Subsequently, the linear slope of absorbance to the measuring time was calculated, and the variance of absorbance at 405 nm per minute was represented and compared with the SEAP-producing result of drug-untreated H1299 cells. In addition, the influence of the cell-treated drug solution to the cellular proliferation and the drug toxicity to the cells were considered, and the cellular growth was evaluated by the MTT assay. The drug-treated cells were analyzed by the SEAP assay and the data analysis of MTT assay at the same time. Both results were compared so as to delete the influence of cell number or the activity to SEAP, and the dose-dependent phenomenon could be anticipated in the range of drug concentration designed by the laboratory. […] Since the chemically-synthetic drugs have colors thereon, the SEAP value of drug-treatment without cells was also determined to be the background value which was deducted while treating with the drugs. The candidate drug for inhibiting telomerase on the hTERT gene expression level was evaluated and anticipated.” for “ELISA reader.”

## O=C1c2ccc(NC(=O)C3CCCC3)cc2C(=O)c2cc(NC(=O)C3CCCC3)ccc21 [Compound 33, 2,7-Bis(cyclopentanecarbonamido)anthraquinone]
BJ1; 1 µM
  viability: 77 ± 1%
BJ1; 10 µM
  viability: 68 ± 1%
BJ1; 100 µM
  viability: 58 ± 1%
H1299; 1 µM
  viability: 91 ± 12%
H1299; 10 µM
  viability: 77 ± 6%
H1299; 100 µM
  viability: 42 ± 12%
